Experimental data: patent US4409238A, “Insecticides and insecticidal compositions” (Kuraray Co., Ltd., priority 1977, dated 1983)

How the values were obtained:
[1] = system: houseflies (Musca domestica); experiment: Mortality test against houseflies by topical application method (Test Example 1); type: in vivo; conditions: female adult houseflies, 24 hours, 25° C.
Procedure: Each test compound was accurately weighed and a 1% solution and a 0.1% solution of the sample in acetone were prepared. A 1 μl portion of either of the above solutions was micropipetted onto the thoracic dorsal part of each female adult housefly (Musca domestica) under ether anaesthesia and the fly was released in a high-walled dish together with feed. The dish was covered with a metal-wire net and maintained at 25° C. After 24 hours, the test flies were inspected for deaths and the mortality (%) was calculated. Thirty test flies were used per concentration group.

[2] = Hydrolysis resistance test (Test Example 5); type: physicochemical; conditions: acetone/water, reflux for 2 days; read-out: Residue (%)
Procedure: Into about 8 ml of acetone were dissolved 100 mg of each test compound and, then, 1.0 g of water was added to this solution to prepare a mixed solution. This mixed solution was refluxed for 2 days. After concentration to about one half of the original volume and with the addition of dioctyl phthalate as an internal reference, the residual amount of the compound was determined by high-speed liquid chromatography. The residue (%) was then calculated.

[3] = Light stability test (Test Example 4); type: physicochemical; conditions: direct sunlight between glass plates, 12° C., relative to aluminum foil-covered control; for remaining at 4 h: read-out: Residue (%) Exposure time 4 hrs.; for remaining at 8 h: read-out: Residue (%) Exposure time 8 hrs.
Procedure: Into 2.0 ml of acetone were dissolved 80 mg of each test compound. A 5 μl portion of the solution was taken and spread on a glass plate (Micro Standard Cover Glass, 18 m/m No. 1, 200 pcs, Matsunami Glass Ind., Ltd.) and the acetone was evaporated. Then, a similar glass plate was superimposed on the above plate in such a manner that the test liquid was sandwitched. The specimen was exposed to direct sunlight at an atmospheric temperature of 12° C. for a predetermined exposure time. As an unexposed control, a similar specimen was covered with an aluminum foil. The test liquid was washed away with 1.0 ml of methanol containing 0.04% of dioctyl phthalate as an internal reference and high-speed liquid chromatography was carried out on the washings to determine the residual amount of the test compound. The residue (%) was calculated with the value for the aluminum foil-covered control specimen as the standard.

green rice leafhoppers = experiment: Spray test on rice seedlings against green rice leafhoppers (Utility Example 1); type: in vivo, green rice leafhoppers (Nephotettix cincticeps); conditions: 30% emulsifiable concentrate (Formulation Example 5) diluted 300-fold, 10 ml/pot, 24 hours
Procedure: To 30 parts of each of Compounds [1], [2], [5] to [13] and [17] to [19] was added 50 parts of xylene and 20 parts of Sorpol SM-200 (a surfactant, trademark of Toho Chemical Co., Ltd.). The mixture was stirred well and dissolved to obtain a 30% emulsifiable concentrate.
The emulsifiable concentrate prepared from Compounds [1], [2], [6], [7], [9], [10], [12] and [13] in Formulation Example 5 were each diluted 300-fold with water. Then, each of the dilutions was sprayed over rice seedlings 25 days after sowing at the rate of 10 ml/pot. The pot was covered with a wire-net and 15 green rice leafhoppers were released under the net. After 24 hours, the leafhoppers were examined for deaths. The mortality (%) was not less than 90% for each of Compounds [1], [2], [6], [7], [9], [10], [12] and [13].

[4] = system: cockroaches (Blattella germanica); experiment: Mortality test against cockroaches by topical application method (Test Example 3); type: in vivo; conditions: 1 μl of 1% solution in acetone, female cockroaches, 24 hours, 25° C.
Procedure: Each test compound was accurately weighed and made in a 1% solution in acetone. Then, 1 μl of the above solution was micropipetted onto the abdominal part of each female cockroach (Blattella germanica) under ether anaesthesia. The roaches were released in a high-walled dish together with feed and, after the disk was covered with a metal wire net, same was maintained at 25° C. Fifteen roaches per group were employed. After 24 hours, the test roaches were inspected for deaths and the mortality (%) for each group was calculated.

guppies = experiment: Fish toxicity test (Test Example 6); type: in vivo; conditions: female guppies, 48 hours, 25° C.; concentration at which 90% or more were killed
Procedure: To 5 l of water were added 250 mg of sorpol SM-200 (registered trademark, Toho Chemical Co., Ltd.) or Tween-20 (commercial product) as an emulsifier (surfactant) as well as 2.5 ml of an acetone solution containing one of the test compounds in a predetermined concentration. The mixture was stirred well to prepare a test water. Ten female guppies from 3 to 4 months of age were released into the test water and maintained at 25° C. The concentration of the test compound at which 90% or more of the guppies were killed during the ensuring 48 hours was determined. (This concentration is referred to as LC90).

house-flies = experiment: Settling mist mortality test against houseflies, oil preparations of Formulation Example 3 (Utility Example 4); type: in vivo, houseflies (Musca domestica); conditions: oil preparation with 0.1 part compound and 0.08 part permethrin per 100 parts, 24 hours
Procedure: To 0.1 part of each of Compounds [1] to [28] was added 0.08 part of permethrin, followed by the addition of a sufficient amount of kerosene to make 100 parts. The mixture was stirred to obtain an oil preparation of each compound.
(§1) By the settling mist method, a mortality test against house-flies was carried out using the oil preparations obtained in Formulation Example 3 from Compounds [1], [2], [5] to [11] and [17]. After 24 hours, the flies were examined for deaths. The mortality (%) was not less than 90% for each of Compounds [1], [2], [5] to [11] and [17].

houseflies = experiment: Settling mist mortality test against houseflies, oil preparations of Formulation Example 2 (Utility Example 3); type: in vivo, houseflies (Musca domestica); conditions: oil preparation with 0.1 part compound and 0.1 part resmethrin per 100 parts, 24 hours
Procedure: To 0.1 part of each of Compounds [1] to [17] was added 0.1 part of resmethrin, followed by the addition of a sufficient amount of kerosene to make 100 parts. The mixture was stirred to obtain an oil preparation of each compound.
as §1, with “houseflies” for “house-flies”, “made” for “obtained”, “2” for “3”

[5] = system: green rice leafhoppers (Nephotettix cincticeps); experiment: Mortality test against green rice leafhoppers by topical application method (Test Example 2); type: in vivo; conditions: 0.1% solution in acetone, female adults, 24 hours, 25° C.
Procedure: Each test compound was accurately weighed and an 0.1% solution in acetone was prepared. Female adults of green rice leafhopper (Nephotettix cincticeps) were anaesthetized with carbon dioxide gas and 0.5 µl of the above solution was micropipetted onto the thoracic abdominal part of each leafhopper. Then, the test leafhoppers were kept at 25° C. with access to rice plant seedlings. Each group comprised 15 green rice leafhoppers. After 24 hours, the leafhoppers were inspected for deaths and the mortality (%) was calculated for each compound.

With `CC(C)(CC(=O)OC(C#N)c1cccc(Oc2ccccc2)c1)C(Cl)C=C(Cl)Cl` (stereo not drawn) [Compound [18], α-Cyano-3-phenoxybenzyl β-(1,3,3-trichloroallyl)isovalerate] as the compound, how does the “Mortality (%) 10 μg/fly” value [1] read?
Its value is 100%.

What about the remaining at 48 h [2] of the same compound?
The remaining at 48 h was over 90%.

And the remaining at 4 h [3]?
Its remaining at 4 h is 98%.

What about the remaining at 8 h [3] of the same compound?
The remaining at 8 h was 97%.

For `CC(C)C(CC=C(Br)Br)C(=O)OCc1cccc(Oc2ccccc2)c1` (stereo not drawn) [Compound [8], 3-Phenoxybenzyl α-(3,3-dibromoallyl)isovalerate], which “Mortality (%) 1 μg/fly” value [1] is on record?
The value was 100%.

What about the “Mortality (%) 10 μg/fly” value [1] of the same compound?
The value was 100%.

Which “Mortality (%) 1 μg/fly” value [1] does the source give for `C#CC(OC(=O)C(CC=C(Cl)Cl)C(C)C)c1cccc(Oc2ccccc2)c1` (stereo not drawn) [Compound [7], α-Ethynyl-3-phenoxybenzyl α-(3,3-dichloroallyl)isovalerate] here?
The value was 90%.

And the “Mortality (%) 10 μg/fly” value [1]?
Its value is 100%.

What about the remaining at 48 h [2] of the same compound?
The remaining at 48 h was over 90%.

And the “Mortality (%)” value (green rice leafhoppers)?
The value was “not less than 90%”.

And the remaining at 4 h [3]?
The remaining at 4 h was 96%.

What about the remaining at 8 h [3] of the same compound?
The remaining at 8 h was 96%.

What about the mortality at 1 %, 0.01 mg [4] of the same compound?
The mortality at 1 %, 0.01 mg was 80%.

With `CC(C)C(CC=C(Br)Br)C(=O)OC(C#N)c1cccc(Oc2ccccc2)c1` (stereo not drawn) [Compound [9], α-Cyano-3-phenoxybenzyl α-(3,3-dibromoallyl)isovalerate] as the compound, how does the “Mortality (%) 1 μg/fly” value [1] read?
The value was 100%.

What about the “Mortality (%) 10 μg/fly” value [1] of the same compound?
The value was 100%.

And the “Mortality (%)” value (green rice leafhoppers)?
The value was “not less than 90%”.

For `C#CC(OC(=O)CC(C)(C)CC=C(Cl)Cl)c1cccc(Oc2ccccc2)c1` (stereo not drawn) [Compound [13], α-Ethynyl-3-phenoxybenzyl β-(3,3-dichloroallyl)isovalerate], which “Mortality (%) 1 μg/fly” value [1] is on record?
Its value is 90%.

And the “Mortality (%) 10 μg/fly” value [1]?
The value was 100%.

What about the “Mortality (%)” value (green rice leafhoppers) of the same compound?
Its value is “not less than 90%”.

What about the remaining at 4 h [3] of the same compound?
Its remaining at 4 h is 100%.

And the remaining at 8 h [3]?
The remaining at 8 h was 100%.

With `C#CC(OC(=O)C(CC=C(Br)Br)C(C)C)c1cccc(Oc2ccccc2)c1` (stereo not drawn) [Compound [10], α-Ethynyl-3-phenoxybenzyl α-(3,3-dibromoallyl)isovalerate] as the compound, how does the “Mortality (%) 1 μg/fly” value [1] read?
Its value is 100%.

What about the “Mortality (%) 10 μg/fly” value [1] of the same compound?
The value was 100%.

And the LC90 (guppies)?
The LC90 was at least 10 ppm.

What about the “Mortality (%)” value (green rice leafhoppers) of the same compound?
Its value is “not less than 90%”.

And the remaining at 4 h [3]?
Its remaining at 4 h is 97%.

And the remaining at 8 h [3]?
The remaining at 8 h was 97%.

For `C=CCC1=C(C)C(OC(=O)C2C(C=C(C)C)C2(C)C)CC1=O` (stereo not drawn) [Allethrin, reference compound], which “Mortality (%) 1 μg/fly” value [1] is on record?
The value was 50%.

And the LC90 (guppies)?
The LC90 was “Not more than 0.5 ppm”.

What about the remaining at 4 h [3] of the same compound?
The remaining at 4 h was 35%.

And the remaining at 8 h [3]?
The remaining at 8 h was 17%.

What does the source list for `CC(C)(CC=C(Cl)Cl)CC(=O)OC(C#N)c1cccc(Oc2ccccc2)c1` (stereo not drawn) [Compound [12], α-Cyano-3-phenoxybenzyl β-(3,3-dichloroallyl)isovalerate]?
Mortality (%) 1 μg/fly [1]: 100%; Mortality (%) 10 μg/fly [1]: 100%; remaining at 48 h [2]: > 90%; Mortality (%) (green rice leafhoppers): not less than 90%; remaining at 4 h [3]: 92%; remaining at 8 h [3]: 90%

What does the source list for `CC(C)C(CC=C(Cl)Cl)C(=O)OC(C#N)c1cccc(Oc2ccccc2)c1` (stereo not drawn) [Compound [6], α-Cyano-3-phenoxybenzyl α-(3,3-dichloroallyl)isovalerate]?
Mortality (%) 1 μg/fly [1]: 100%; Mortality (%) 10 μg/fly [1]: 100%; remaining at 48 h [2]: > 90%; Mortality (%) (green rice leafhoppers): not less than 90%; remaining at 4 h [3]: 92%; remaining at 8 h [3]: 92%; mortality at 1 %, 0.01 mg [4]: 100%

For `CC(C)=CCC(C(=O)OCc1cccc(Oc2ccccc2)c1)C(C)C` (stereo not drawn) [reference compound], which “Mortality (%) 1 μg/fly” value [1] is on record?
Its value is 0%.

For `C=CCC(C(=O)OCc1cccc(Oc2ccccc2)c1)C(C)C` (stereo not drawn) [reference compound], which “Mortality (%) 1 μg/fly” value [1] is on record?
The value was 0%.

What about the “Mortality (%) 10 μg/fly” value [1] of the same compound?
The value was 0%.

For `CC(C)C(CC=C(Cl)Cl)C(=O)OCc1cccc(Oc2ccccc2)c1` (stereo not drawn) [Compound [5], 3-Phenoxybenzyl α-(3,3-dichloroallyl)isovalerate], which “Mortality (%) 1 μg/fly” value [1] is on record?
Its value is 100%.

What about the “Mortality (%) 10 μg/fly” value [1] of the same compound?
Its value is 100%.

And the remaining at 4 h [3]?
The remaining at 4 h was 99%.

What about the remaining at 8 h [3] of the same compound?
Its remaining at 8 h is 98%.

Which “Mortality (%) 1 μg/fly” value [1] does the source give for `CC(C)(CC=C(Cl)Cl)CC(=O)OCc1cccc(Oc2ccccc2)c1` [Compound [11], 3-Phenoxybenzyl β-(3,3-dichloroallyl)isovalerate] here?
Its value is 100%.

And the “Mortality (%) 10 μg/fly” value [1]?
Its value is 100%.

And the remaining at 48 h [2]?
Its remaining at 48 h is over 90%.

And the remaining at 4 h [3]?
Its remaining at 4 h is 100%.

What about the remaining at 8 h [3] of the same compound?
The remaining at 8 h was 96%.

For `CC(C)(CC(=O)OCc1cccc(Oc2ccccc2)c1)C(Cl)C=C(Cl)Cl` (stereo not drawn) [Compound [17], 3-Phenoxybenzyl β-(1,3,3-trichloroallyl)isovalerate], which “Mortality (%)” value (house-flies) is on record?
Its value is “not less than 90%”.

And the “Mortality (%) 1 μg/fly” value [1]?
Its value is 100%.

What about the “Mortality (%) 10 μg/fly” value [1] of the same compound?
Its value is 100%.

What about the “Mortality (%)” value (houseflies) of the same compound?
The value was “not less than 90%”.

What about the remaining at 4 h [3] of the same compound?
Its remaining at 4 h is 100%.

And the remaining at 8 h [3]?
The remaining at 8 h was 100%.

For `CC(C)C(C=C(Cl)Cl)C(=O)OCc1cccc(Oc2ccccc2)c1` (stereo not drawn) [reference compound], which mortality at 0.1 % [5] is on record?
The mortality at 0.1 % was 40%.

For `C#CC(OC(=O)CC(C)(C)C(Cl)C=C(Cl)Cl)c1cccc(Oc2ccccc2)c1` (stereo not drawn) [Compound [19], α-Ethynyl-3-phenoxybenzyl β-(1,3,3-trichloroallyl)isovalerate], which “Mortality (%) 10 μg/fly” value [1] is on record?
Its value is 100%.

And the remaining at 4 h [3]?
Its remaining at 4 h is 97%.

What about the remaining at 8 h [3] of the same compound?
The remaining at 8 h was 92%.
